Converted amounts (≈) assume the structure as drawn. Like-named read-outs stand apart in the source and are kept apart here.
Legend:
Parainfluenza Type 3 = assay: microbe, parasite or virus in culture; format: cell-based; settings: virus E = Parainfluenza Type 3
Influenza A0 = assay: microbe, parasite or virus in culture; format: cell-based; settings: virus A = Influenza A0, MDCK, Vero and HEL cells, 2 or 3 days
Rhino = assay: microbe, parasite or virus in culture; format: cell-based
Coxsackie Type B5 = assay: microbe, parasite or virus in culture; format: cell-based; settings: virus G = Coxsackie Type B5
Influenza A1 = assay: microbe, parasite or virus in culture; format: cell-based
ECHO = assay: microbe, parasite or virus in culture; format: cell-based
Influenza B = assay: microbe, parasite or virus in culture; format: cell-based
influenza A0 virus = assay: animal or person; format: in vivo, mice; settings: for responders at 300 mg/kg / responders at 100 mg/kg / responders at 10 mg/kg / responders at 30 mg/kg: Mus musculus, 360 h, twice a day for 14 days, survivors at 15th day, read-out: Survival rate; for protective action against death due to the infection: result in words, Tables 3 and 4
[1] = Acute toxicity in mice (LD50); format: in vivo; settings: ddY male mice, suspended in 5% Arabic gum solution, observed for 7 days; for LD50 at 168 h: mouse, in vivo
Experimental: Experimental Example 7: Acute Toxicity in Mice
Each compound of the invention was suspended in 5% Arabic gum solution and given orally (p.o.) or intraperitoneally (i.p.) to groups of ten ddY male mice weighed from 24 to 26 g at the dosage volume of 10 ml/kg. […] LD50 was determined according to the method of Wilcoxon and Litchfield.

influenza virus A/WSN = assay: animal or person; format: in vivo, mice; settings: in Mus musculus, 360 h, read-out: Survival rate
[2] = ip, i.p., read-out: LD50 value, Intraperitoneal administration
[3] = po, p.o., read-out: LD50 value, Oral administration

Structure (SMILES) | MIC (Parainfluenza Type 3) | MIC (Influenza A0) | MIC (Rhino) | MIC (Coxsackie Type B5) | MIC (Influenza A1) | MIC (ECHO) | MIC (Influenza B) | responders at 300 mg/kg (influenza A0 virus; oral) | responders at 100 mg/kg (influenza A0 virus; ip, intraperitoneal) | LD50 at 168 h [1, 2] | LD50 at 168 h [1, 3] | LD50 value, Oral administration ([1]; p.o.) | further results
N=C(N)NNS(=O)(=O)c1cc(C(=O)O)c(Cl)cc1Cl [Compound 22] | 300 µg/mL (≈ 917 µM) | 100 µg/mL (≈ 306 µM) | 300 µg/mL (≈ 917 µM) | 300 µg/mL (≈ 917 µM) | 300 µg/mL (≈ 917 µM) | 100 µg/mL (≈ 306 µM) | 300 µg/mL (≈ 917 µM) | 40% | 40% | > 1000 mg/kg | > 3000 mg/kg |  | 
CN(CCO)S(=O)(=O)c1cc(C(=O)O)ccc1Cl [Compound 6] | 300 µg/mL (≈ 1020 µM) | 30 µg/mL (≈ 102 µM) | 300 µg/mL (≈ 1020 µM) | 300 µg/mL (≈ 1020 µM) | 300 µg/mL (≈ 1020 µM) | 100 µg/mL (≈ 340 µM) | 300 µg/mL (≈ 1020 µM) | 40% | 60% | > 1000 mg/kg | > 3000 mg/kg |  | 
NS(=O)(=O)c1cc(C(=O)O)c(Cl)cc1Cl [Compound 19] |  |  |  |  |  |  |  |  |  |  |  | >3,000 mg/kg | protective action against death due to the infection (influenza A0 virus): extremely excellent activity; LD50 value, Intraperitoneal administration ([1]; i.p.): >1,000 mg/kg
CCNS(=O)(=O)c1cc(C(=O)O)ccc1Cl [Compound 2] |  |  |  |  |  |  |  |  |  |  |  | >3,000 mg/kg | LD50 value, Intraperitoneal administration ([1]; i.p.): >1,000 mg/kg
O=C(O)c1ccc(Cl)c(S(=O)(=O)N2CCOCC2)c1 [Compound 11] |  |  |  |  |  |  |  |  |  |  |  | >3,000 mg/kg | LD50 value, Intraperitoneal administration ([1]; i.p.): >1,000 mg/kg
NNS(=O)(=O)c1cc(C(=O)O)ccc1Cl [Compound 7] | 300 µg/mL (≈ 1200 µM) | 10 µg/mL (≈ 39.9 µM) | 300 µg/mL (≈ 1200 µM) | 300 µg/mL (≈ 1200 µM) | 300 µg/mL (≈ 1200 µM) | 300 µg/mL (≈ 1200 µM) | 100 µg/mL (≈ 399 µM) | 60% |  | 746 mg/kg | > 3000 mg/kg |  | responders at 100 mg/kg (influenza A0 virus; oral): 40%; responders at 10 mg/kg (influenza A0 virus; ip, intraperitoneal): 30%; responders at 30 mg/kg (influenza A0 virus; ip, intraperitoneal): 50%; protective action against death due to the infection (influenza A0 virus): extremely excellent activity
O=C(O)c1ccc(Cl)c(S(=O)(=O)Nc2ccccc2)c1 [Compound 9] |  |  |  |  |  |  |  |  |  |  |  | >3,000 mg/kg | 
COC(=O)c1ccc(F)c(S(N)(=O)=O)c1 [Compound 28] |  |  |  |  |  |  |  |  |  |  |  | >3,000 mg/kg | LD50 value, Intraperitoneal administration ([1]; i.p.): >1,000 mg/kg
NS(=O)(=O)c1cc(Cl)cc(C(=O)O)c1 [Compound 25] | 300 µg/mL (≈ 1270 µM) | 30 µg/mL (≈ 127 µM) | 300 µg/mL (≈ 1270 µM) | 300 µg/mL (≈ 1270 µM) | 300 µg/mL (≈ 1270 µM) | 300 µg/mL (≈ 1270 µM) | 100 µg/mL (≈ 424 µM) | 50% | 40% | > 1000 mg/kg | > 3000 mg/kg |  | 
NS(=O)(=O)c1cc(C(=O)O)cc([N+](=O)[O-])c1Cl [Compound 15] | 300 µg/mL (≈ 1070 µM) | 30 µg/mL (≈ 107 µM) | 300 µg/mL (≈ 1070 µM) | 300 µg/mL (≈ 1070 µM) | 300 µg/mL (≈ 1070 µM) | 100 µg/mL (≈ 356 µM) | 300 µg/mL (≈ 1070 µM) | 50% | 50% | > 1000 mg/kg | > 3000 mg/kg |  | 
NS(=O)(=O)c1cc(Br)cc(C(=O)O)c1 [Compound 26] | 300 µg/mL (≈ 1070 µM) | 30 µg/mL (≈ 107 µM) | 300 µg/mL (≈ 1070 µM) | 300 µg/mL (≈ 1070 µM) | 300 µg/mL (≈ 1070 µM) | 100 µg/mL (≈ 357 µM) | 300 µg/mL (≈ 1070 µM) | 50% | 40% | > 1000 mg/kg | > 3000 mg/kg |  | 
O=C(O)c1ccc(Cl)c(S(=O)(=O)N2CCCC2)c1 [Compound 12] | 300 µg/mL (≈ 1040 µM) | 30 µg/mL (≈ 104 µM) | 300 µg/mL (≈ 1040 µM) | 100 µg/mL (≈ 345 µM) | 300 µg/mL (≈ 1040 µM) | 300 µg/mL (≈ 1040 µM) | 300 µg/mL (≈ 1040 µM) | 40% | 40% | > 1000 mg/kg | > 3000 mg/kg |  | 
NS(=O)(=O)c1cc(C(=O)O)c(Cl)cc1F [Compound 17] | 300 µg/mL (≈ 1180 µM) | 30 µg/mL (≈ 118 µM) | 300 µg/mL (≈ 1180 µM) | 300 µg/mL (≈ 1180 µM) | 300 µg/mL (≈ 1180 µM) | 300 µg/mL (≈ 1180 µM) | 300 µg/mL (≈ 1180 µM) | 40% | 40% | > 1000 mg/kg | > 3000 mg/kg |  | 
CN1CCN(S(=O)(=O)c2cc(C(=O)O)ccc2Cl)CC1 [Compound 13] | 300 µg/mL (≈ 941 µM) | 10 µg/mL (≈ 31.4 µM) | 300 µg/mL (≈ 941 µM) | 100 µg/mL (≈ 314 µM) | 100 µg/mL (≈ 314 µM) | 300 µg/mL (≈ 941 µM) | 100 µg/mL (≈ 314 µM) | 70% |  | > 1000 mg/kg | > 3000 mg/kg |  | responders at 100 mg/kg (influenza A0 virus; oral): 50%; responders at 10 mg/kg (influenza A0 virus; ip, intraperitoneal): 40%; responders at 30 mg/kg (influenza A0 virus; ip, intraperitoneal): 50%; protective action against death due to the infection (influenza A0 virus): extremely excellent activity
CC(C)NS(=O)(=O)c1cc(C(=O)O)ccc1Cl [Compound 8] |  |  |  |  |  |  |  |  |  |  |  | >3,000 mg/kg | LD50 value, Intraperitoneal administration ([1]; i.p.): >1,000 mg/kg
Nc1cc(Cl)c(S(N)(=O)=O)cc1C(=O)O [Compound 14] | 300 µg/mL (≈ 1200 µM) | 30 µg/mL (≈ 120 µM) | 300 µg/mL (≈ 1200 µM) | 300 µg/mL (≈ 1200 µM) | 100 µg/mL (≈ 399 µM) | 300 µg/mL (≈ 1200 µM) | 300 µg/mL (≈ 1200 µM) | 50% | 40% | > 1000 mg/kg | > 3000 mg/kg |  | 
CN(C)S(=O)(=O)c1cc(C(=O)O)ccc1Cl [Compound 3] |  |  |  |  |  |  |  |  |  |  |  | >3,000 mg/kg | LD50 value, Intraperitoneal administration ([1]; i.p.): >1,000 mg/kg
CC(C)OC(=O)c1cc(S(N)(=O)=O)c(Cl)cc1Cl [Compound 34] |  |  |  |  |  |  |  |  |  | > 1000 mg/kg | > 3000 mg/kg |  | responders at 30 mg/kg (influenza virus A/WSN; ip): 30%; responders at 100 mg/kg (influenza virus A/WSN; ip): 40%
NS(=O)(=O)c1cc(C(=O)OCc2ccccc2)c(Cl)cc1Cl [Compound 39] |  |  |  |  |  |  |  |  |  | > 1000 mg/kg | > 3000 mg/kg |  | responders at 100 mg/kg (influenza virus A/WSN; po): 30%; responders at 300 mg/kg (influenza virus A/WSN; po): 40%
CCC(C)OC(=O)c1cc(S(N)(=O)=O)c(Cl)cc1Cl (stereo not drawn) [Compound 36] |  |  |  |  |  |  |  |  |  | > 1000 mg/kg | > 3000 mg/kg |  | responders at 30 mg/kg (influenza virus A/WSN; ip): 30%; responders at 100 mg/kg (influenza virus A/WSN; ip): 40%
CCOC(=O)c1cc(S(N)(=O)=O)c(Cl)cc1Cl [Compound 32] |  |  |  |  |  |  |  |  |  | > 1000 mg/kg | > 3000 mg/kg |  | responders at 100 mg/kg (influenza virus A/WSN; po): 40%; responders at 300 mg/kg (influenza virus A/WSN; po): 50%
CNS(=O)(=O)c1cc(C(=O)O)ccc1Cl [Compound 1] |  |  |  |  |  |  |  |  |  |  |  | >3,000 mg/kg | LD50 value, Intraperitoneal administration ([1]; i.p.): >1,000 mg/kg
NS(=O)(=O)c1cc(C(=O)OC2CCCCC2)c(Cl)cc1Cl [Compound 38] |  |  |  |  |  |  |  |  |  | > 1000 mg/kg | > 3000 mg/kg |  | responders at 30 mg/kg (influenza virus A/WSN; ip): 30%; responders at 100 mg/kg (influenza virus A/WSN; ip): 40%
CCOC(=O)c1cc(S(N)(=O)=O)c(F)cc1Cl [Compound 42] |  |  |  |  |  |  |  |  |  | > 1000 mg/kg | > 3000 mg/kg |  | responders at 100 mg/kg (influenza virus A/WSN; po): 40%; responders at 300 mg/kg (influenza virus A/WSN; po): 50%
